According to patent US20260256796A1, “METHOD FOR TREATING FELINE CORONAVIRUS OR CALICIVIRUS INFECTION” (VIGONVITA LIFE SCIENCES CO., LTD., priority 2022, published 2026):

How the values were obtained:
[1] = system: feline infectious peritonitis virus (FIPV); assay: Inhibitory activity against feline coronavirus (FIPV) in CRFK cells, CellTiter-Glo readout; type: cell-based; conditions: for EC50: Alphacoronavirus 1, FIPV 0.1 MOI/well, 72 h, CellTiter-Glo; for inhibition of replication of FIPV in vitro: summary of Table 1
Description: CRFK cells in a good growth state were seeded into a 96-well assay plate. When the cells grew to 80%-90% confluence, feline coronavirus (FIPV) (0.1 MOI/well) and varying concentrations of the test compounds were added to the assay plate. Meanwhile, a cell control (cells, no compound treatment or viral infection) and a virus control (cells infected with virus, no compound treatment) were set. The final concentration of DMSO in the culture solution was 1%. After incubation at 37° C. for 72 h, the cells were treated with a CellTiter-Glo luminescent cell viability assay reagent (Promega, Madison, WI, USA). The half-maximal effective concentration (EC50) values of the compounds for virus inhibition were calculated using the GraphPad prism 7 software.

[2] = Pharmacokinetic evaluation in rats; type: in vivo; conditions: male, SD; for AUC(0-inf) / AUC(0-t) / Cmax: nucleoside (compound 4) in rat plasma
Description: Male SD rats were fasted before the experiment (except for the intravenous group, which was not fasted), with free access to water, and were fed uniformly 2 h after administration. Compound 4 was administered by intravenous injection at a dose of 2.0 mg/kg (n=3) and administered intragastrically at a dose of 10.0 mg/kg (n=3); compound 53 was administered by intravenous injection at a dose of 5.0 mg/kg (n=3) and administered intragastrically at a dose of 20.0 mg/kg (n=3); the administration vehicle was 5% DMSO+5% ethanol+40% PEG300+50% saline. After the administration, 0.2-mL blood samples were collected via the jugular vein at different time points. Each blood sample was then placed into a heparin sodium anticoagulation tube, gently mixed uniformly, and centrifuged at 2000 g for 10 min. Plasma was isolated and frozen in a refrigerator at −70° C. for later analysis. The concentration of nucleoside (compound 4) in the plasma was determined by the LC-MS-MS method, and pharmacokinetic parameters were calculated.

SMILES	EC50 [1]	inhibition of replication of FIPV in vitro [1]	also measured
[2H]c1cc([C@]2(C#N)O[C@H](COC(C)=O)[C@@H](OC(C)=O)[C@H]2OC(C)=O)n2ncnc(N)c12 [Compound 40]	1.05 µM	–	–
[2H]c1cc([C@]2(C#N)O[C@H](COC(=O)CC)[C@@H](O)[C@H]2O)n2ncnc(N)c12 [Compound 29]	1.1 µM	–	–
CC(C)C(=O)O[C@H]1[C@@H](O)[C@](C#N)(c2ccc3c(N)ncnn23)O[C@@H]1CO [Compound 20]	0.69 µM	could inhibit the replication	–
[2H]c1cc([C@]2(C#N)O[C@H](COC(=O)C(C)C)[C@@H](O)[C@H]2O)n2ncnc(N)c12 [Compound 11]	0.69 µM	could inhibit the replication	–
[2H]c1cc([C@]2(C#N)O[C@H](COC(=O)C(C)C)[C@H]3OC(=O)O[C@H]32)n2ncnc(N)c12 [Compound 53]	0.66 µM	could inhibit the replication	–
[2H]c1cc([C@]2(C#N)O[C@H](COC(=O)C(CC)CC)[C@@H](O)[C@H]2O)n2ncnc(N)c12 [Compound 32]	43.8 µM	–	–
[2H]c1cc([C@]2(C#N)O[C@H](CO)[C@@H](O)[C@H]2O)n2ncnc(N)c12 [Compound 4]	2.34 µM	–	bioavailability ([2]; plasma, rat, nucleoside (compound 4) measured, po 10.0 mg/kg vs iv 2.0 mg/kg, read-out: F (oral bioavailability)): 21.7%; AUC(0-inf) ([2]; iv 2.0 mg/kg): 1790 ng·h/mL; AUC(0-t) ([2]; iv 2.0 mg/kg): 1720 ng·h/mL; Cmax ([2]; iv 2.0 mg/kg): 1630 ng/mL; AUC(0-inf) ([2]; po 10.0 mg/kg): 1910 ng·h/mL; AUC(0-t) ([2]; po 10.0 mg/kg): 1870 ng·h/mL; Cmax ([2]; po 10.0 mg/kg): 246 ng/mL
N#C[C@@]1(c2ccc3c(N)ncnn23)O[C@H](CO)[C@@H](O)[C@H]1O [GS-441524, reference compound]	2.29 µM	–	–
[2H]c1cc([C@]2(C#N)O[C@H](COC(C)=O)[C@@H](O)[C@H]2O)n2ncnc(N)c12 [Compound 52]	1.3 µM	–	–
CC(C)C(=O)OC[C@H]1O[C@@](C#N)(c2ccc3c(N)ncnn23)[C@H](OC(=O)C(C)C)[C@@H]1OC(=O)C(C)C [Compound 27]	1.59 µM	–	–
N#C[C@@]1(c2ccc3c(N)ncnn23)O[C@H](CO)[C@H]2OC(=O)O[C@H]21 [Compound 25]	2.75 µM	–	–
CC(C)C(=O)OC[C@H]1O[C@@](C#N)(c2ccc3c(N)ncnn23)[C@H](O)[C@@H]1O [Compound 6]	0.65 µM	could inhibit the replication	–
[2H]c1cc([C@]2(C#N)O[C@H](COC(=O)C(C)C)[C@@H](OC(=O)C(C)C)[C@H]2OC(=O)C(C)C)n2ncnc(N)c12 [Compound 42]	1.63 µM	–	–
